Test results: PubChem BioAssay (NCI)
“And” between values parts separate entries of the source, which are not always exact repeats. Equal values may be shown once.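 Test compounds were applied to cells in 96-well plates for 48 hours at 5 doses. Here, GI50 denotes the concentration required for 50% inhibition of growth. TGI: total growth inhibition.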

How the values were obtained:
Experiment in all cases: NCI-60 cell line screen, 48 h
COLO 205 colon = system: COLO 205 colon
HCT-116 colon = system: HCT-116 colon
KM12 colon = system: KM12 colon
NCI-H460 lung = system: NCI-H460 lung
OVCAR-3 ovarian = system: OVCAR-3 ovarian
OVCAR-5 ovarian = system: OVCAR-5 ovarian
SF-268 CNS = system: SF-268 CNS
SK-MEL-2 melanoma = system: SK-MEL-2 melanoma
SR leukemia = system: SR leukemia
UO-31 renal = system: UO-31 renal

Compound | GI50 (COLO 205 colon) | TGI (COLO 205 colon) | GI50 (HCT-116 colon) | TGI (HCT-116 colon) | GI50 (KM12 colon) | GI50 (NCI-H460 lung) | TGI (NCI-H460 lung) | GI50 (OVCAR-3 ovarian) | TGI (OVCAR-5 ovarian) | GI50 (SF-268 CNS) | TGI (SF-268 CNS) | GI50 (SK-MEL-2 melanoma) | GI50 (SR leukemia) | TGI (SR leukemia) | GI50 (UO-31 renal) | TGI (UO-31 renal) | TGI (KM12 colon) | TGI (OVCAR-3 ovarian) | GI50 (OVCAR-5 ovarian) | TGI (SK-MEL-2 melanoma)
COc1cc([C@@H]2c3cc4c(cc3[C@H](O)[C@H]3COC(=O)[C@H]23)OCO4)cc(OC)c1OC | < 0.01 µM | < 0.005 µM | < 0.01 µM | 0.5 µM | < 0.01 µM | < 0.005 µM | > 100 µM and 50 µM and > 7.95 µM | < 0.005 µM | > 100 µM and 46.3 µM | < 0.01 µM | > 63.4 µM and 50 µM and > 39.2 µM | < 0.005 µM | < 0.01 µM | < 0.005 µM | < 0.005 µM | > 100 µM and 50 µM and 42.7 µM |  |  |  | 
Clc1ccc(-c2nn3ncccc3c2-c2ccnc(Nc3ccccc3)n2)cc1 | > 18.7 µM | > 25 µM | 7.02 µM | > 25 µM | 9.03 µM | 6.34 µM | > 25 µM | 5.92 µM | > 25 µM | 11.5 µM | > 25 µM | 24.4 µM | 7.66 µM | > 25 µM | 1.35 µM | > 16.1 µM | > 25 µM | > 25 µM | 11.9 µM | > 25 µM
CC1=C(/C=C/C(C)=C/C=C/C(C)=C/C(=O)Nc2ccc(O)cc2)C(C)(C)CCC1 | 1.58 µM | 4.8 µM and 8.28 µM | 2.05 µM | 4.6 µM and 15.7 µM | 1.58 µM | 2.58 µM | 9.48 µM and 25.2 µM | 1.5 µM | 26.8 µM and 24 µM | 1.52 µM | 3.94 µM and 14.2 µM | 4.17 µM | 2.53 µM and 1.33 µM | 6.02 µM and 5.97 µM | 1.17 µM | 2.57 µM and 11.6 µM | 6.19 µM and 17.2 µM | 3.13 µM and 7.54 µM | 12.5 µM | 13.3 µM and 17.4 µM
C=C1C(=O)O[C@@H]2C[C@@H]1CC[C@@]1(C)O[C@@H]1CC[C@@]1(C)O[C@@H]1CC[C@@]2(C)O | 14.4 µM | 31 µM | 16.4 µM | 32 µM | 26.2 µM | 60.3 µM | > 100 µM | 15.7 µM | 56.5 µM | 40.5 µM | > 100 µM | 23 µM | 3.12 µM | 16.3 µM | 15.3 µM | > 100 µM | > 100 µM | 37.3 µM | 20.5 µM | 75.2 µM
O=C(O)CCCCn1cnc2c(=S)nc[nH]c21 |  | > 100 µM |  | > 100 µM |  |  | > 100 µM |  | > 100 µM |  | > 100 µM |  |  | > 100 µM |  | > 100 µM | > 100 µM | > 100 µM |  | > 100 µM
CC1=C(c2cc(C(=O)Nc3ccc(Cl)c(Cl)c3)nc(N)n2)Sc2ccccc2N1 |  | > 100 µM |  | > 100 µM |  |  | > 100 µM |  | > 100 µM |  | > 100 µM |  |  | > 100 µM |  | > 100 µM | > 100 µM | > 100 µM |  | > 100 µM
CCC[CH2][Sn]([CH2]CCC)([O]C(=O)c1nccnc1N)[O]C(=O)c1nccnc1N | 0.899 µM | 2.1 µM | 1.1 µM | 2.3 µM | 1.42 µM | 1.63 µM | 3.33 µM | 1.21 µM | 3.1 µM | 0.64 µM | 1.97 µM | 0.424 µM | 0.294 µM | 2.35 µM | 1.45 µM | 2.77 µM | 2.74 µM | 2.45 µM | 1.72 µM | 1.62 µM
C=C1CCC2C3(C)COC(c4ccc(SC)cc4)OC3CCC2(C)C1C/C=C1/C(=O)OCC1O (stereo not given) | 7.72 µM | 20.6 µM | 1.76 µM | 3.44 µM | 5.21 µM | 8.78 µM | 22.3 µM | 2.8 µM | 25.2 µM | 6.8 µM | 19.9 µM | 3.73 µM | 2.53 µM | 8.04 µM | 9.73 µM | 21.9 µM | 17.6 µM | 6.91 µM | 10.3 µM | 15.5 µM
Cc1ccccc1N=Nc1c(O)[nH]c2ccccc12 |  | > 100 µM |  | > 100 µM |  |  | > 100 µM |  | > 100 µM |  | > 100 µM |  |  | > 100 µM |  | > 100 µM | > 100 µM | > 100 µM |  | > 100 µM
O=C1/C(=C/c2ccccc2)CCC/C1=C\c1ccccc1 | 6.31 µM and 15.1 µM | 11.5 µM and 32.7 µM and 35.2 µM |  | 5.86 µM and 3.09 µM and 3.33 µM | 3.54 µM and 2.11 µM | 6.09 µM and 19.8 µM | 12 µM and 34 µM and 46.8 µM | 6.25 µM and 4.04 µM | 12 µM and 31.7 µM and 43.3 µM | 6.72 µM and 5.81 µM | 13.3 µM and 29.5 µM and 20.3 µM | 6.19 µM and 22.7 µM | 10.8 µM and 3.16 µM | 36.5 µM and > 64.3 µM and 7.58 µM | 6.04 µM and 12.5 µM | 11 µM and 32.3 µM and 28 µM | 7.81 µM and 5.54 µM and 4.26 µM | 11.3 µM and 24 µM and 13 µM | 6.75 µM and 22 µM | 13.9 µM and 35.5 µM and 49.9 µM
COC(=O)[C@@]1(C)CC[C@]2(C)CC[C@]3(C)C4=CC=C5C(=CC(=O)C(O)=C5C)[C@]4(C)CC[C@@]3(C)[C@@H]2C1 | 0.182 µM | 0.437 µM | 0.163 µM | 0.32 µM | 0.369 µM | 0.274 µM | 0.796 µM | 0.169 µM | 1.5 µM | 0.341 µM | 1.23 µM | 0.24 µM | 0.19 µM | 0.564 µM | 0.127 µM | 0.261 µM | 1.49 µM | 0.325 µM | 0.44 µM | 0.555 µM
CCC1CC(=O)N(SCC(N)C(=O)O)C1=O (stereo not given) |  | > 100 µM |  | > 100 µM |  |  | > 100 µM |  | > 100 µM |  | > 100 µM |  |  | > 100 µM |  | > 100 µM | > 100 µM | > 100 µM |  | > 100 µM
CCOC(=O)c1c(C)n2c(=O)cc(C)c3c(OC(C)=O)c(OC(C)=O)cc1c32 | 4.62 µM | 18.7 µM | 3.56 µM | 17 µM | 5.54 µM | 4.01 µM | 18.9 µM | 3.49 µM | 42.2 µM | 5.26 µM | > 74.1 µM | 4.57 µM | 2.78 µM | > 32.2 µM | 4.6 µM | > 35.8 µM | 29.4 µM | > 62.7 µM | 11.9 µM | 29.8 µM
COC(=O)c1ccc([N+](=O)[O-])c(O)c1 |  | > 100 µM |  | > 100 µM |  |  | > 100 µM |  | > 100 µM |  | > 100 µM |  |  | > 100 µM |  | > 100 µM | > 100 µM | > 100 µM |  | > 100 µM
CC1OC(OC2CC(O)C3(CO)C4C(O)CC5(C)C(C6=CC(=O)OC6)CCC5(O)C4CCC3(O)C2)C(O)C(O)C1O (stereo not given) | 0.0239 µM | 0.116 µM | < 0.0139 µM | 0.0209 µM | 0.0249 µM | < 0.0111 µM | 0.0174 µM | < 0.013 µM | 0.0311 µM | < 0.0142 µM | 0.0236 µM | 0.0187 µM | 0.0221 µM | 0.0546 µM | < 0.0124 µM | 0.0198 µM | 0.217 µM | < 0.0171 µM | 0.0147 µM | 0.0754 µM
COc1ccc(-c2cc(/C=C3\C(=O)Nc4ccc(OC)cc43)[nH]n2)cc1 | 4.53 µM | > 100 µM | 9.08 µM | > 100 µM | 1.62 µM | 5.45 µM | > 100 µM | 68.9 µM | > 100 µM | 27.4 µM | > 100 µM | 43.5 µM | 0.595 µM | > 100 µM | > 100 µM | > 100 µM | > 100 µM | > 100 µM | > 100 µM | > 100 µM
N#CC(C#N)=CSc1ccccc1 |  | 55.3 µM |  | 76.3 µM |  |  | > 100 µM |  | 68.9 µM |  | 54.1 µM |  |  | > 100 µM |  | 39.5 µM | > 100 µM | > 100 µM |  | 72.3 µM
CC(=O)OCC1OC(OC2=C(CC=C(Cl)Cl)C(=O)c3ccccc3C2=O)C(OC(C)=O)C(OC(C)=O)C1OC(C)=O (stereo not given) | 13.6 µM | 36.3 µM | 1.74 µM | 3.92 µM | 3.26 µM | 12.5 µM | 34.4 µM | 2.27 µM | 28.6 µM | 2.75 µM | 8.03 µM | 3.33 µM | 3.11 µM | > 100 µM | 1.44 µM | 3.37 µM | 10.1 µM | 4.88 µM | 11.8 µM | 9.25 µM
